Values of other authors in patent US20250170094A1 (priority 2023, published 2025).
Where two headings read alike, the source gives them in different places.

Key:
[1] = not given; remark: listed apart in the source

For CCC(CC)[C@H](NC(C)=O)[C@@H]1[C@H](O)[C@@H](C(=O)O)C[C@H]1NC(=N)N [peramivir, (1S,2S,3R,4R)-3-[(1S)-1-(acetylamino)-2-ethylbutyl]-4-guanidino-2-hydroxycyclopentanecarboxylic acid], the solubility (pH 1.0) is given as “about 59 mg/ml”, the solubility (pH≥5) is given as at most 20 mg/mL and the “oil-water partition coefficient LogP[n-octanol/water]” value [1] is given as −1.16.
